This data set relates to healthy male subjects. Description: Two step infusion study in healthy male subjects: safety and tolerability. The format is in vivo, human. How it is done:
A double-blind, placebo-controlled, randomized, single iv dose, two periods cross-over study to assess the safety, tolerability, pharmacodynamics and pharmacokinetics during and following a two step infusion of Tedisamil in healthy male subjects was performed with the following drug and dosages: Tedisamil dihydrochloride/0.4 mg/kg body weight infused over 30 minutes.
Screening assessments included physical examination, ECG, HIV/Hepatitis screening, blood pressure and heart rate measurements, clinical laboratory determinations, urine drug screen, alcohol breath test, and medical history. Follow-up assessments included physical examination, ECG, blood pressure and heart rate measurements, clinical laboratory determinations, and questions for adverse events and concomitant medication. During concomitant administration of Tedisamil, blood pressure, heart rate, and ECGs were recorded. Adverse events and concomitant medication were monitored throughout the study.
Subjects who received study medication, were considered valid for safety evaluation.
Treatment emergent adverse events, defined as any adverse event present at baseline that worsened or any event that began after treatment with study medication, were summarized by COSTART term for each treatment group. Each adverse event was evaluated for frequency of occurrence, duration, intensity, action taken, outcome, and relationship to administration of the study medication. Adverse events were listed for each subject.
Listings of abnormal or out of range values for each subject were presented for vital signs, laboratory assays, and physical examinations. Adverse events, blood pressure, heart rate and clinical laboratory data were analyzed descriptively and reviewed to evaluate the safety of all randomized subjects. Any clinical abnormalities were described.

SMILES strings stand for the structures. Counter-ions that a name gives are not always drawn.

Take `C1CCC2(C1)C1CN(CC3CC3)CC2CN(CC2CC2)C1` [tedisamil dihydrochloride, N,N′-dicyclopropylmethyl-9,9-tetramethylen-3,7-diazabicyclo[3,3,1]nonane dihydrochloride]: the “Findings in hematology, clinical chemistry, urinalysis and vital signs” value (0.4 mg/kg iv two step infusion) is reported as “No clinically relevant findings”. Besides, the Safety and tolerability entry (two step infusion of 0.4 mg tedisamil dihydrochloride per kg (0.32 mg/kg base), dihydrochloride) was “well tolerated”.

(Values after patent US7087620B2, “Liquid pharmaceutical formulations containing 3,7-diazabicyclo[3,3,1]nonane compounds and methods of treatment relating to anti-arrhythmic events” (Solvay Pharmaceuticals GmbH, priority 2002, dated 2006).)
